Results published in US20240327393A1 (SIRONAX LTD., priority 2021, published 2024).

Test system: HT-1080 (ATCC, CCL-121) cells
Experiment: HT-1080 cell viability assay with ferroptosis inducer RSL3 (Cell Titer-Glo)
Format: cell-based
Settings: Homo sapiens; HT-1080 cells treated with RSL3; 3-fold, 10-point dilution, 1.1 μM highest concentration; Table 2; read-out: EC50 (nM), ferroptosis inhibitory activity
Method in brief: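 EC50 was derived by sigmoidal dose-response regression of CellTiter-Glo luminescence viability, expressed relative to untreated wells. Compounds were tested in a ten-point, threefold dilution series (highest 1.1 μM) in the presence of the ferroptosis inducer RSL3. HT-1080 cells had been seeded at 6000 per well and grown overnight first.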

Compound | EC50 [nM]
CC1CCN(c2ccc(Nc3ccc4ccn(C)c4c3)cc2)CC1 [Compound 330, 1-methyl-N-(4-(4-methylpiperidin-1-yl)phenyl)-1H-indol-6-amine] | 0.1 to 100
Cn1cnc2cc(Nc3ccc4c(c3)n(C)c(=O)n4C)ccc21 [Compound 331, 1,3-dimethyl-5-((1-methyl-1H-benzo[d]imidazol-5-yl)amino)-1,3-dihydro-2H-benzo[d]imidazol-2-one] | 100 to 1000
Cn1c(=O)n(C)c2cc(Nc3ccc(N4CCC(O)(C(F)(F)F)CC4)cc3)ccc21 [Compound 332, 5-((4-(4-hydroxy-4-(trifluoromethyl)piperidin-1-yl)phenyl)amino)-1,3-dimethyl-1,3-dihydro-2H-benzo[d]imidazol-2-one] | 0.1 to 100
Cn1cnc2cc(Nc3ccc(N4CCC(C(F)(F)F)CC4)cc3)ccc21 [Compound 336, 1-methyl-N-(4-(4-(trifluoromethyl)piperidin-1-yl)phenyl)-1H-benzo[d]imidazol-5-amine] | 0.1 to 100
CC1CCN(c2ccc(Nc3ccc4c(c3)N(C)CC4(C)C)cc2)CC1 [Compound 338, 1,3,3-trimethyl-N-(4-(4-methylpiperidin-1-yl)phenyl)indolin-6-amine] | 0.1 to 100
Cc1nc2ccc(Nc3ccc(N4CCC(C)CC4)cc3)cc2o1 [Compound 339, 2-methyl-N-(4-(4-methylpiperidin-1-yl)phenyl)benzo[d]oxazol-6-amine] | 0.1 to 100
C/N=c1\n(C)c2ccc(Nc3ccc(N4CCC(C(F)(F)F)CC4)cc3)cc2n1C [Compound 340, 1,3-dimethyl-2-(methylimino)-N-(4-(4-(trifluoromethyl)piperidin-1-yl)phenyl)-2,3-dihydro-1H-benzo[d]imidazol-5-amine] | 0.1 to 100

Results, then the compound that gave them:

EC50 [nM] | Compound
0.1 to 100 | Cc1cc(Nc2ccc(N3CCC(C(F)(F)F)CC3)cc2)cc2c1C(=O)N(C)C2 [Compound 326, 2,7-dimethyl-5-((4-(4-(trifluoromethyl)piperidin-1-yl)phenyl)amino) isoindolin-1-one]
0.1 to 100 | Cn1c(=O)oc2cc(Nc3ccc(N4CC5(CCC5)C4)cc3)ccc21 [Compound 327, 6-((4-(2-azaspiro[3.3]heptan-2-yl)phenyl)amino)-3-methylbenzo[d]oxazol-2(3H)-one]
0.1 to 100 | CCn1c(=O)n(CC)c2cc(Nc3ccc(N4CCC(C)CC4)cc3)ccc21 [Compound 328, 1,3-diethyl-5-((4-(4-methylpiperidin-1-yl)phenyl)amino)-1,3-dihydro-2H-benzo[d]imidazol-2-one]
0.1 to 100 | CC1CCN(c2ccc(Nc3ccc4c(ccn4C)c3)cc2)CC1 [Compound 329, 1-methyl-N-(4-(4-methylpiperidin-1-yl)phenyl)-1H-indol-5-amine]
0.1 to 100 | Cn1c(=O)oc2cc(Nc3ccc(N4CCC(O)(C(F)(F)F)CC4)cc3)ccc21 [Compound 333, 6-((4-(4-hydroxy-4-(trifluoromethyl)piperidin-1-yl)phenyl)amino)-3-methylbenzo[d]oxazol-2(3H)-one]
0.1 to 100 | COCCn1c(=O)n(C)c2ccc(Nc3ccc(N4CCC(C(F)(F)F)CC4)cc3)cc21 [Compound 334, 3-(2-methoxyethyl)-1-methyl-5-((4-(4-(trifluoromethyl)piperidin-1-yl)phenyl)amino)-1,3-dihydro-2H-benzo[d]imidazol-2-one]
0.1 to 100 | CN1C(=O)C(C)(C)c2ccc(Nc3ccc(N4CCC(C(F)(F)F)CC4)cc3)cc21 [Compound 335, 1,3,3-trimethyl-6-((4-(4-(trifluoromethyl)piperidin-1-yl)phenyl)amino) indolin-2-one]
0.1 to 100 | FC(F)(F)C1CCN(c2ccc(Nc3ccc4occc4c3)cc2)CC1 [Compound 337, N-(4-(4-(trifluoromethyl)piperidin-1-yl)phenyl)benzofuran-5-amine]
0.1 to 100 | Cn1c(=O)n(C)c2cc(Nc3ccc(N4CCC(C)(O)CC4)cc3)ccc21 [Compound 341, 5-((4-(4-hydroxy-4-methylpiperidin-1-yl)phenyl)amino)-1,3-dimethyl-1,3-dihydro-2H-benzo[d]imidazol-2-one]
